Assay results as given in patent US20090252716A1, “METHODS FOR IDENTIFYING NUCLEAR RECEPTOR/LIGAND COMBINATIONS FOR TARGETING BRAIN TUMOR STEM CELLS AND FOR THEIR USE” (Clarian Health Partners, Inc. d/b/a Methodist Research …, priority 2008, published 2009).

Tests used:
U87MG tumorspheres = assay: Tumorsphere formation from U87MG cells in NBM; format: cell-based, human; details: NBM with B27, EGF+bFGF
Method: FIG. 9B, first panel, illustrates cells of U87MG cultured in DMEM. Cells cultured in NBM with B27 supplement in the presence of EGF+bFGF developed into tumorspheres within 3-5 days (see FIG. 9A, middle panel).
(§1) Gliosphere culture. To generate gliospheres, the following standardized method was utilized. Briefly, U87MG and T98G glioblastoma cells were dissociated from DMEM cultures using trypsin-EDTA solution and reseeded in neurobasal medium (NBM) supplemented with B27 in the presence of 10 ng/ml bFGF and EGF. The cells (5×10^4/ml/well) were cultured in 12 well plates in 5% CO2-incubator at 37° C. with a medium change of every 2-3 days. The cells were photographed (200× and 400×) under phase contrast microscope (AX70, Olympus Optical, Japan) after 10-12 days. The primary human glioblastoma cells were also dissociated from DMEM using trypsin-EDTA. The cells were cultured (1×10^5 cells/ml/well) in neurobasal medium (NBM) supplemented with B27 in the presence of 10 ng/ml of bFGF and EGF in 12 well plates in 5% CO2-incubator at 37° C. The resulting tumorspheres were photographed under light microscope.

[1] = test system: U87MG and T98G human glioma cells, their respective BTSC's, and CD133+ cells; assay: Proliferation of glioma cells, BTSC's and CD133+ cells, result in words; format: cell-based
Method: (§2) The use of nuclear receptor agonists in the treatment of brain tumors was examined by testing the effect of the specific ligands on the proliferation of brain tumor and BTSC'S. Prior to studying the anti-tumor effect of melatonin, it was necessary to determine the viability of glioma and BTSC's in the cultures used in this study. […] Their proliferation was measured by WST-1 assay. The ligands for all six nuclear receptors induced anti-proliferative activity in brain tumor stem cells as well as human glioma cells. It was also noted that the selected nuclear receptor agonists induced anti-tumor activity in brain tumor stem cells and that the different agonists for the highly altered nuclear hormone receptors provided different levels of inhibition for brain tumor cells and BTSC's in cultures. As a result, the nuclear hormone receptors having altered expression and activation profile in BTSC can be selected to specifically target BTSC's. Additional information regarding the individual studies is provided below:
(§3) Proliferation assay. Proliferation of gliosphere cells was measured using WST-1 assay (Roche Applied Sciences, Indianapolis, Ind.) and ^3H thymidine uptake assay. Briefly, T98G and U87MG glioma and gliosphere cells were cultured in 96-well tissue culture plates (1×10^4/200 μl/well) in neurobasal medium with B27 serum supplement in the presence of 10 ng/ml EGF+bFGF and increasing doses of nuclear receptors in 5% CO2-incubator at 37° C. After 48 hrs, WST-1 reagent ([…]) was added and the absorbance was measured at 460 nm using 2100 microplate reader (Alpha Diagnostics Inc., San Antonio, Tex.) as a measure of viable cell count. This assay is based on the cleavage of the tetrazolium salt, WST-1, by mitochondrial dehydrogenases in viable cells and a decrease in OD corresponds to decrease in viable cell count. In some experiments, ^3H thymidine (0.5 μCi/ml) was added at 48 hours, the cells harvested after 72 hours using a Tomtech harvester 96 (Hamden, Conn., USA) and the amount of ^3H thymidine uptake counted on a Perkin Elmer Microbeta liquid scintillation counter to provide a measure of proliferation.

T98G human glioma cells = assay: WST-1 proliferation assay, T98G glioma cells; format: cell-based; details: anti-tumor activity, 48 hours, read-out: EC50, T98-glioma
Method: as §2
(§4) Cell culture. The U87MG and T98G brain tumor cell-lines, established from human glioblastoma (Ponten, et al., 1968) were obtained from American Type Culture Collection (ATCC, Manassas, Va.). The cells were cultured in Dulbecco's Modified Eagle Medium (DMEM) (Invitrogen, California, USA) supplemented with 10% FBS, 1 mM Sodium pyruvate, 100 U/ml penicillin G, 100 μg/ml Streptomycin, 2 mM glutamine, 1 mM MEM nonessential amino acids and 50 μM 2-mercaptoethanol in 5% CO2 incubator at 37° C. The cells were dissociated using 0.25% trypsin, 0.53 mM EDTA solution and sub-cultured once in 3-5 days. Primary brain tumor tissue/cells were also obtained from the tissue repository at Methodist Research Institute and cultured (1×10^5 cells/ml/well) in DMEM medium supplemented with 10% FBS and sub-cultured once in 10-12 days.
as §3, with “This assay is based on the cleavage of the tetrazolium salt, WST-1, by mitochondrial dehydrogenases in viable cells and a decrease in OD corresponds to decrease in viable cell count.” left out

[2] = test system: T98G BTSC's (brain tumor stem cells); assay: WST-1 proliferation assay, T98G BTSC's; format: cell-based; details: Homo sapiens, anti-tumor activity, 48 hours, read-out: EC50, T98-BTSC
Method: (§5) The use of nuclear receptor agonists in the treatment of brain tumors was examined by testing the effect of the specific ligands on the proliferation of brain tumor and BTSC'S. Prior to studying the anti-tumor effect of melatonin, it was necessary to determine the viability of glioma and BTSC's in the cultures used in this study. […] Their proliferation was measured by WST-1 assay. […] Additional information regarding the individual studies is provided below:
as §1
(§6) Proliferation assay. Proliferation of gliosphere cells was measured using WST-1 assay (Roche Applied Sciences, Indianapolis, Ind.) and ^3H thymidine uptake assay. […] After 48 hrs, WST-1 reagent ([…]) was added and the absorbance was measured at 460 nm using 2100 microplate reader (Alpha Diagnostics Inc., San Antonio, Tex.) as a measure of viable cell count. […] In some experiments, ^3H thymidine (0.5 μCi/ml) was added at 48 hours, the cells harvested after 72 hours using a Tomtech harvester 96 (Hamden, Conn., USA) and the amount of ^3H thymidine uptake counted on a Perkin Elmer Microbeta liquid scintillation counter to provide a measure of proliferation.

T98G-CD133+ cells = assay: WST-1 proliferation assay, T98G-CD133+ cells; format: cell-based; details: Homo sapiens, anti-tumor activity, 48 hours
Method: as §2
(§7) Isolation and expansion of CD133+ BTSC: The CD133+ BTSC were isolated from human glioblastoma cells by magnetic bead technique using CD133 antibody (Miltenyi Biotec, Auburn, Calif., USA). The U87MG and T98G glioma cells and tumor spheres expanded as described above were dissociated by treatment with Trypsin-EDTA solution at 37° C. for 10 minutes. The cells (1×10^7 cells) were washed in cold sterile PBS, re-suspended in 100 μl blocking buffer (PBS, pH 7.2, 0.5% BSA, 2 mM EDTA) with 50 μl of FcR blocking reagents (Miltenyi Biotech, Auburn, Calif., USA) and incubated at 4° C. for 30 minutes. The cells were washed and re-suspended in 200 μl of anti-PE microbeads in the buffer and incubated at 4° C. for 30 minutes. The CD133+ cells were separated by passing through an LS column in the midi Macs separation unit. The column effluent was collected to provide a CD133 negative population. The columns were washed with buffer, removed from the Mac separation unit and placed in a sterile 15 ml tube. […] The cells obtained were counted and expanded in culture or used directly for the experiments described herein.
as §6

U87MG human glioma cells = assay: WST-1 proliferation assay, U87 glioma cells; format: cell-based; details: U-87 MG, anti-tumor activity, 48 hours
Method: as §2, §4
as §3, with “This assay is based on the cleavage of the tetrazolium salt, WST-1, by mitochondrial dehydrogenases in viable cells and a decrease in OD corresponds to decrease in viable cell count.” left out

[3] = test system: U87 BTSC's (brain tumor stem cells); assay: WST-1 proliferation assay, U87 BTSC's; format: cell-based; details: Homo sapiens, anti-tumor activity, 48 hours
Method: as §5, §1, §6

U87-CD133+ cells = assay: WST-1 proliferation assay, U87-CD133+ cells; format: cell-based; details: Homo sapiens, anti-tumor activity, 48 hours
Method: as §2, §7, §6

T98G tumorspheres = assay: Tumorsphere formation from T98G glioblastoma cells in NBM; format: cell-based, human; details: NBM with B27, EGF+bFGF
Method: Initially culture conditions were established for expanding BTSC's as tumorspheres from brain tumor cells in culture. […] The resulting tumorspheres increased substantially in size within 7 to 10 days. FIG. 1 illustrates typical glioblastoma cells cultured in DMEM supplemented with 10% FBS and the corresponding tumorspheres cultured in neurobasal medium (NBM) with B27 supplement and 10 ng/ml EGF+bFGF. The tumorspheres illustrated in FIG. 1 were photographed after 10 days (200×).
as §1

Compound: CCCCCC=CC=C1C(=O)C=C[C@@H]1CC=CCCCC(=O)O [15d-PGJ2, 15-deoxy Δ^12,14-prostaglandin J2]
- tumorsphere size and number, U87MG (U87MG tumorspheres): significantly decreased
- proliferation of glioma cells and BTSC's [1]: inhibited the proliferation

Compound: CCCC(=O)SCCNC(=O)CCNC(=O)[C@H](O)C(C)(C)COP(=O)(O)OP(=O)(O)OC[C@H]1O[C@@H](n2cnc3c(N)ncnc32)[C@H](O)[C@@H]1OP(=O)(O)O [Butyryl CoA]
- EC50 (T98G human glioma cells): 85 ± 5.59 µM
- EC50 [2]: 85.5 ± 22.4 µM
- EC50 (T98G-CD133+ cells): 54.7 ± 5.76 µM
- EC50 (U87MG human glioma cells): 20.3 ± 0.57 µM
- EC50 [3]: 72.5 ± 1.57 µM
- EC50 (U87-CD133+ cells): 17.6 ± 0.29 µM
- number and size of T98G tumorspheres (T98G tumorspheres): significant and dose-dependent decrease
- proliferation of glioma cells and BTSC's [1]: dose-dependent decrease in the proliferation

Compound: Clc1ccc(-c2nc3sccn3c2/C=N/OCc2ccc(Cl)c(Cl)c2)cc1 [CITCO]
- number and size of T98G tumorspheres (T98G tumorspheres): significant and dose-dependent decrease
- proliferation of glioma cells and BTSC's [1]: inhibits the proliferation

Compound: O=C(O)Cc1cccc(OCCCN(Cc2cccc(C(F)(F)F)c2Cl)CC(c2ccccc2)c2ccccc2)c1 [GW3965]
- EC50 (T98G human glioma cells): 4.85 ± 1 µM
- EC50 [2]: 12.2 ± 3.04 µM
- EC50 (T98G-CD133+ cells): 3.28 ± 0.64 µM
- EC50 (U87MG human glioma cells): 4.22 ± 0.23 µM
- EC50 [3]: 1.55 ± 0.43 µM
- EC50 (U87-CD133+ cells): 2.96 ± 0.21 µM
- number and size of T98G tumorspheres (T98G tumorspheres): significant and dose-dependent decrease
- proliferation of glioma cells and BTSC's [1]: inhibits the proliferation

Compound: COc1ccc2[nH]cc(CCNC(C)=O)c2c1 [Melatonin]
- EC50 (T98G human glioma cells): 31 ± 12 µM
- EC50 [2]: 44.7 ± 6.18 µM
- EC50 (T98G-CD133+ cells): 2.45 ± 0.43 µM
- EC50 (U87MG human glioma cells): 18.66 ± 0.18 µM
- EC50 [3]: 7.91 ± 1.34 µM
- EC50 (U87-CD133+ cells): 2.6 ± 0.25 µM
- number and size of T98G tumorspheres (T98G tumorspheres): significant and dose-dependent decrease
- proliferation of glioma cells and BTSC's [1]: inhibits the proliferation

Compound: CO[C@H]1/C=C/O[C@@]2(C)Oc3c(C)c(O)c4c(O)c(c(/C=N/N5CCN(C)CC5)c(O)c4c3C2=O)NC(=O)/C(C)=C\C=C\[C@H](C)[C@H](O)[C@@H](C)[C@@H](O)[C@@H](C)[C@H](OC(C)=O)[C@@H]1C [Rifampicin]
- EC50 (T98G human glioma cells): 12.8 ± 1.97 µM
- EC50 (T98G-CD133+ cells): 1.99 ± 0.47 µM
- EC50 (U87MG human glioma cells): 25.4 ± 4 µM
- EC50 (U87-CD133+ cells): 1.2 ± 0.2 µM
